The subject of one data set is CD31 and CD34 (% MVD). Briefly: Immunohistochemistry of EAC solid tumor sections, microvessel density (CD31, CD34). The note with it: oral treatment of EAC-bearing mice.
A short description of data set [1]: Toxicity: vital organs' indices and histopathology in EAC solid tumor bearing mice. Type of data set: in vivo, Swiss albino mice. To be noted: for Brain Index / Heart Index / Kidney Index / Liver Index: mean ± SD (n = 6); for Histopathological examination of liver, kidney, heart and brain samples: 10 mg/kg, EAC solid tumor bearing mice (40x).
The target in a further data set is T1, VEGFR-2 (KDR) (Homo sapiens, UniProt P35968).
T1 construct: purchased BPS Bioscience 40301
Briefly: In vitro VEGFR-2 tyrosine kinase activity (Kinase-Glo Plus luminescence, BPS Bioscience). Type of data set: biochemical. The note with it: 5 concentrations 1 nM - 10 μM.

Data set [2] has as its system VEGF-induced vascular permeability (Evans Blue extravasation). Briefly: Miles vascular permeability assay. The note with it: in vivo; 10 mg/kg (Fig. 15). Also on record: species or system mice. The procedure: Miles Vascular Permeability Assay. One to two days prior to the experiment, mice were shaved to expose the skin. Mice were anesthetized with intra-peritoneal injection of Avertin. A sterile solution of 1% Evans Blue (EB) in PBS was prepared and 100 μl was injected IV into the tail vein, using a needle (small gauge, 27–30) at a 10–15 degree angle. The animals were then left for (30–60) min. VEGF (50 μl of 1 ng/μl) and 50 μl of PBS with 0.05% gelatin were injected intradermally using a 30-gauge needle into the skin overlying the back. After 20 min, the animals were sacrificed by cervical dislocation that is recommended to limit significant interference with vascular permeability. The skin was opened, exposed and representative pictures were taken to assess the intensity of EB […]. The Formamide/EB mixture was centrifuged and supernatant absorbance was measured at 600 nm (Shimadzu Spectrophotometer, UV-1601; Japan). extravasation was calculated as ng EB per mg tissue.

The subject of a further data set is active caspase 3. Briefly: Immunohistochemistry of EAC solid tumor sections, active caspase 3. The note with it: oral treatment of EAC-bearing mice.
Another data set addresses c-Raf (Homo sapiens, UniProt P04049). Briefly: In vitro multiple-kinase inhibition assay, c-Raf. The data set is classed as biochemical. The procedure: (§1) In vitro multiple-kinase inhibition assay. […] Kinase enzymatic activity of the tested compounds was evaluated against a reference kinase inhibitor at 10 μM (Table 2).
(§2) The multiple kinases activity at single dose concentration of 10 μM was performed, c-Kit, c-Raf, c-Src, RET served as the enzyme source. […] Kinase-Glo Plus Luminescence kinase assay kit (Promega#V3772), ADP-Glo Luminescence assay kit was used for c-kit assay (Supplementary). […]
(§3) mM MgCl2, 0.1 mg/ml BSA, 1 mM DTT, 10 µM ATP, Kinase substrate and VEGFR. After the enzymatic reaction, 50 µl of Kinase-Glo Plus Luminescence kinase assay solution (Promega) was added to each reaction and incubate the plate for 5 minutes at room temperature.
(§4) Luminescence signal was measured using a BioTek Synergy 2 microplate reader. VEGFR activity assays were performed in duplicate at each concentration.
(§5) The luminescence data were analyzed using the computer software, Graphpad Prism. The difference between luminescence intensities in the absence of VEGFR (Lut) and in the presence of VEGFR (Luc) was defined as 100 % activity (Lut – Luc). Using luminescence signal (Lu) in the presence of the compound, % activity was calculated as:
(§6) % activity = {(Lut - Lu)/(Lut - Luc)}×100%, where Lu= the luminescence intensity in the […]
(§7) IC50 determination for inhibitor against VEGFR was calculated. The values of % activity versus a series of compound concentrations (1 nM - 10 nM - 100 nM - 1 µM - 10 µM) were then […]
(§8) or Hill coefficient. The IC50 value was determined by the concentration causing a half-maximal […]
(§9) In vitro multiple-kinase inhibition assay
(§10) Luminescence signal was measured using a BioTek Synergy 2 microplate reader […]
(§11) The luminescence data were analyzed using the same computer software and the same protocol

In the next data set the target is phospho-VEGFR-2 (Tyr951) (Mus musculus, UniProt P35918). Briefly: Immunohistochemistry of EAC solid tumor sections, phospho-VEGFR-2. To be noted: oral treatment of EAC-bearing mice.
A further data set has as its target RET (Homo sapiens, UniProt P07949). Briefly: In vitro multiple-kinase inhibition assay, RET. Type of data set: biochemical. The procedure: as §1, §2, §3, §4, §5, §6, §7, §8, §9, §10, §11
Another data set addresses c-Kit (Homo sapiens, UniProt P10721). Description: In vitro multiple-kinase inhibition assay, c-Kit (ADP-Glo). Type of data set: biochemical. The protocol: as §1, §2, §3, §4, §5, §6, §7, §8, §9
The assay was performed using the same conditions for VEGFR-2 activity assay (section 5.2.1.1). The assays for c-Kit was an exception, it was performed using ADP-Glo Kinase assay reagents (Promega). It measures kinase activity by quantitating the ADP amount produced from the enzymatic reaction. The luminescent signal from the assay is correlated with the amount of ADP present and is directly correlated with the amount of kinase activity. Other conditions are same to the previous section except the final reaction volume was reduced to 25 µl. After the 40 min kinase reaction at 30 °C, 25 µl of ADP-Glo reagent was added and incubated for 45 min at room temperature followed by another 50 min incubation with 50 µl of Kinase detection mixture.
as §10, §11
On the technique in general: ADP-Glo turns the ADP formed in a reaction into a luminescent signal.

The subject of data set [3] is Ehrlich ascites carcinoma (EAC) solid tumor. Briefly: In vivo anticancer activity, EAC solid tumor murine model. The arrangement: species or system Swiss albino mice. The note with it: for TGI (%): once daily for 8 consecutive days; for Histopathological examination of EAC tumor sections (necrosis): hematoxylin-eosin, 40x. The procedure: Animals. Female Swiss albino mice weighing 15–20 g were used in the present study. They were obtained from the animal breeding laboratory, National Cancer Institute (NCI), Cairo University, Egypt. Animals were kept in our animal facility, faculty of pharmacy, Ain Shams university at 25 ± 2 °C and a relative humidity of 40–45% with alternative day and night cycles of 12 h each. Animals had free access to pellet food and water ad libitum. Standard diet pellets (El-Nasr, Abu Zaabal, Egypt) contained not less than 20% protein, 5% fiber, 3.5% fat, 6.5% ash and a vitamin mixture. Animal care and experiments were conducted in accordance with the protocols approved by the Ethics Research Committee, Faculty of Pharmacy, Ain Shams University, following the Institutional Animal Care and Use Committee guidelines.
Tumor cells preparation and transplantation. Ehrlich ascites carcinoma (EAC) cells were obtained from NCI, Cairo University, Egypt. EAC cells were maintained in the ascitic form in Swiss albino mice by intraperitoneal transplantation of each mouse every 10 days. Ascitic fluid was drawn from tumor-bearing mice at the log phase (7–8th day of tumor bearing) of the tumor cells. The freshly drawn fluid was diluted with ice-cold sterile isotonic saline. 200 μl tumor cell suspension containing 2 × 10^6 tumor cells were then subcutaneously injected in each mouse.
Experimental design. Swiss albino mice were divided into six groups (n = 6 per group).
Evaluation of effectiveness. Tumor growth curve was drawn according to the change in tumor volume from first day of treatment (day 0) till day 7. Longest and shortest diameters of the solid tumor were monitored using a digital vernier caliper. Tumor volume (TV) of each animal was calculated using the following formula: […]
Tumor growth inhibition (TGI) was calculated as follows.
RTV = (Tumor volume at the day of measurement)/Tumor volume at the initial day.
Histopathological Examination
thickness by slidge microtome.
graded ethanol solutions.

The next data set has as its target c-Src (Homo sapiens, UniProt P12931). Briefly: In vitro multiple-kinase inhibition assay, c-Src. Type of data set: biochemical. The procedure:
as §1, §2, §3, §4, §5, §6, §7, §8, §9, §10, §11

Data set [4] deals with HUVEC umbilical vein endothelial cells. Briefly: In vitro HUVEC anti-proliferative assay (alamarBlue). The data set is classed as cell-based. To be noted: Homo sapiens, HUVEC proliferation at 10 μM, 72 hours. (In general: Alamar Blue is a resazurin reagent that responds to reducing activity.)
The test system of the next data set is VEGFR-2. To be noted: read-out: VEGFR-2 IC50 of pyrrolo[3,2-d]pyrimidine derivative (III); cited from earlier work.
The subject of a further data set is wild-type b-Raf. To be noted: read-out: wild-type b-Raf IC50; cited from earlier work.
The target in data set [5] is fms-related tyrosine kinase 3 receptor (FLT3). The note with it: cited from earlier work.
Data set [6] has as its system stem cell factor receptor (c-KIT). The note with it: cited from earlier work.
For another data set, the target named is RET tyrosine kinase. Also on record: method as in PMID 16507829. The note with it: cited from earlier work.
Data set [7] concerns platelet-derived growth factor receptor-B (PDGFR-B). To be noted: cited from earlier work.

pIC50: −log10 of the molar value.

Sequence of c-Raf (P04049 whole entry, species assumed): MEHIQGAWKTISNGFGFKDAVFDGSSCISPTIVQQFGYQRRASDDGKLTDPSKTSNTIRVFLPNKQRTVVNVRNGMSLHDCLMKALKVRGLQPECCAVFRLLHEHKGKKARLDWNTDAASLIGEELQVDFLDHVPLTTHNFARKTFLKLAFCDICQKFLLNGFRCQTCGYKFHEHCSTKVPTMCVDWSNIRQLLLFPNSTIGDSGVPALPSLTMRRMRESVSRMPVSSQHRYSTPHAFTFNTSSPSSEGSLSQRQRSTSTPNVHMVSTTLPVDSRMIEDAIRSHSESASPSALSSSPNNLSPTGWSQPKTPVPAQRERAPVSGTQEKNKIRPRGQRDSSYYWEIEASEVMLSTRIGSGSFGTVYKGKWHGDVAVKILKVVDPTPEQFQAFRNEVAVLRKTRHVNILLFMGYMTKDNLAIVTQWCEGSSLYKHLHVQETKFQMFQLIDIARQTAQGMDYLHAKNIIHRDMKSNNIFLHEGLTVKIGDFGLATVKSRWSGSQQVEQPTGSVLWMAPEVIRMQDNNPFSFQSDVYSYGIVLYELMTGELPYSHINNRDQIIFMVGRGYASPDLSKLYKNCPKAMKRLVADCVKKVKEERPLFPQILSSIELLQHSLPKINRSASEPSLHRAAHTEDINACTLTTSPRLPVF
Sequence of c-Src (P12931 whole entry, species assumed): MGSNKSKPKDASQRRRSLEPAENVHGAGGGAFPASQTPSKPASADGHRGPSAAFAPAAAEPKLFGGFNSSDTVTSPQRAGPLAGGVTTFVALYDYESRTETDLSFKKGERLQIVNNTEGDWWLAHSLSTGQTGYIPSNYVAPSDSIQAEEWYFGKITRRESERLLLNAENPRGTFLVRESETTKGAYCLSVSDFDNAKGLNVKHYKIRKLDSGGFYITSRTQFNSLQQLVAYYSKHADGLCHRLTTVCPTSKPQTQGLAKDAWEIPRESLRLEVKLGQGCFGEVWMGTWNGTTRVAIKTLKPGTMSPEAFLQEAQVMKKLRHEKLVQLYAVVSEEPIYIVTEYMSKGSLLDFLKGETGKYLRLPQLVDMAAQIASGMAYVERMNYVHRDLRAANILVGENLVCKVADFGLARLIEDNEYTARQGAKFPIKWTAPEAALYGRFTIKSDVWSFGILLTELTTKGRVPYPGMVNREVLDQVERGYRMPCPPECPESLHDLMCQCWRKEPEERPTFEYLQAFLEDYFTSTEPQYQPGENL
Sequence of phospho-VEGFR-2 (Tyr951) (P35918 20-1345): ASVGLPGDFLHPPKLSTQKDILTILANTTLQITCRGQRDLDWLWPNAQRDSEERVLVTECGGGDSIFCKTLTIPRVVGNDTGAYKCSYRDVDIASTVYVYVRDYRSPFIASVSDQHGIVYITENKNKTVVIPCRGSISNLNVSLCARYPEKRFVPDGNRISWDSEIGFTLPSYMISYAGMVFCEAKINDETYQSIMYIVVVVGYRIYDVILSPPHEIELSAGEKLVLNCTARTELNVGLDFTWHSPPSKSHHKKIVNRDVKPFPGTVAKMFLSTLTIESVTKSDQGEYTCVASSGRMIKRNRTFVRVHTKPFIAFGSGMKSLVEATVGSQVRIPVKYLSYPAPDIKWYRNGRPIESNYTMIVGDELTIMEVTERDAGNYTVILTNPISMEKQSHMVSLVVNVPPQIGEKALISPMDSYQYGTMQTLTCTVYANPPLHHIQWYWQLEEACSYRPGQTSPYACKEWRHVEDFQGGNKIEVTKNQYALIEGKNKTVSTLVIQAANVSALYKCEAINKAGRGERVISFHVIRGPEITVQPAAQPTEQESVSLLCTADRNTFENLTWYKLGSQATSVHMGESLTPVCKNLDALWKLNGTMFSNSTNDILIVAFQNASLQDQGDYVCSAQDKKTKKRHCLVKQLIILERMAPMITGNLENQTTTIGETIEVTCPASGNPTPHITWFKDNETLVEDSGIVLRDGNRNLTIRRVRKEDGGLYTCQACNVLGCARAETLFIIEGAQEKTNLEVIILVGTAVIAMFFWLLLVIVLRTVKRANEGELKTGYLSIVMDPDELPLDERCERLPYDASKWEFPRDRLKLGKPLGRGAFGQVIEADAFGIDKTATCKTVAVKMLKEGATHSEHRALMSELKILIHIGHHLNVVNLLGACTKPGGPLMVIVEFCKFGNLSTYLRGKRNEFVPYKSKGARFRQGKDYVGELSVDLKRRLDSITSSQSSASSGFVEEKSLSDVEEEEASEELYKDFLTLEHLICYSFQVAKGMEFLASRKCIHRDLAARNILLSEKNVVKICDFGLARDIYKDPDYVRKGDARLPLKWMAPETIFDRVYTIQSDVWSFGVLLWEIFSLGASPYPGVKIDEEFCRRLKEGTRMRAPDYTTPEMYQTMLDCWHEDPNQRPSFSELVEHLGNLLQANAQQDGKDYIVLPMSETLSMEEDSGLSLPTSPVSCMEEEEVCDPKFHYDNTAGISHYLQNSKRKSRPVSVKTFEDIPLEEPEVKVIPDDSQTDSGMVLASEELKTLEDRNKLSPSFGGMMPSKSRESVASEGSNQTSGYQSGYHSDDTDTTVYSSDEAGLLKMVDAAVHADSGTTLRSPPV
Sequence of c-Kit (P10721 26-976): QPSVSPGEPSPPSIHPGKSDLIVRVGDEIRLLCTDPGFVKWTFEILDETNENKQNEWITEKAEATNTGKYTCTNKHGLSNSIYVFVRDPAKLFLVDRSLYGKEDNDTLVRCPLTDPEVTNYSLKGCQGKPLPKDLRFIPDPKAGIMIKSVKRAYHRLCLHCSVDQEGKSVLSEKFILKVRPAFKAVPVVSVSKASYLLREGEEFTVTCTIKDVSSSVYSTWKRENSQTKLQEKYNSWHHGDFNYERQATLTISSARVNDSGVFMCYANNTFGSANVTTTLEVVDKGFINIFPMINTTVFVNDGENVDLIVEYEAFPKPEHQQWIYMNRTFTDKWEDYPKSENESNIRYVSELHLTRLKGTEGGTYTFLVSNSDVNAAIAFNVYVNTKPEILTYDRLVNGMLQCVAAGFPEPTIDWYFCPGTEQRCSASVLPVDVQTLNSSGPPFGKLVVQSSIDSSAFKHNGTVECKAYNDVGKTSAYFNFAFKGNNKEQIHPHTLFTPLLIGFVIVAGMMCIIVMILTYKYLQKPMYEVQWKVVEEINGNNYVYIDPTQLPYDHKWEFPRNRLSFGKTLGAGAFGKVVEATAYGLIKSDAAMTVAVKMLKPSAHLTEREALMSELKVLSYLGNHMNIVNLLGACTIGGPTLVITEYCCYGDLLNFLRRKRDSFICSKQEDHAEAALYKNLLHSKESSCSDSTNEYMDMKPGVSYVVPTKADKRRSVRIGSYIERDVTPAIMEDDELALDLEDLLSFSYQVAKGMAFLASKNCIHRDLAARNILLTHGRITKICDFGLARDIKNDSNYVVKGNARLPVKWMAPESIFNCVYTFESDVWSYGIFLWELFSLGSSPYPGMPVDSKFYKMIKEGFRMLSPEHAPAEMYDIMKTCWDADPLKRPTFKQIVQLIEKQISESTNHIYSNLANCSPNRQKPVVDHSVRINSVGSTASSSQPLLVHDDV
T1 sequence (P35968 20-1356): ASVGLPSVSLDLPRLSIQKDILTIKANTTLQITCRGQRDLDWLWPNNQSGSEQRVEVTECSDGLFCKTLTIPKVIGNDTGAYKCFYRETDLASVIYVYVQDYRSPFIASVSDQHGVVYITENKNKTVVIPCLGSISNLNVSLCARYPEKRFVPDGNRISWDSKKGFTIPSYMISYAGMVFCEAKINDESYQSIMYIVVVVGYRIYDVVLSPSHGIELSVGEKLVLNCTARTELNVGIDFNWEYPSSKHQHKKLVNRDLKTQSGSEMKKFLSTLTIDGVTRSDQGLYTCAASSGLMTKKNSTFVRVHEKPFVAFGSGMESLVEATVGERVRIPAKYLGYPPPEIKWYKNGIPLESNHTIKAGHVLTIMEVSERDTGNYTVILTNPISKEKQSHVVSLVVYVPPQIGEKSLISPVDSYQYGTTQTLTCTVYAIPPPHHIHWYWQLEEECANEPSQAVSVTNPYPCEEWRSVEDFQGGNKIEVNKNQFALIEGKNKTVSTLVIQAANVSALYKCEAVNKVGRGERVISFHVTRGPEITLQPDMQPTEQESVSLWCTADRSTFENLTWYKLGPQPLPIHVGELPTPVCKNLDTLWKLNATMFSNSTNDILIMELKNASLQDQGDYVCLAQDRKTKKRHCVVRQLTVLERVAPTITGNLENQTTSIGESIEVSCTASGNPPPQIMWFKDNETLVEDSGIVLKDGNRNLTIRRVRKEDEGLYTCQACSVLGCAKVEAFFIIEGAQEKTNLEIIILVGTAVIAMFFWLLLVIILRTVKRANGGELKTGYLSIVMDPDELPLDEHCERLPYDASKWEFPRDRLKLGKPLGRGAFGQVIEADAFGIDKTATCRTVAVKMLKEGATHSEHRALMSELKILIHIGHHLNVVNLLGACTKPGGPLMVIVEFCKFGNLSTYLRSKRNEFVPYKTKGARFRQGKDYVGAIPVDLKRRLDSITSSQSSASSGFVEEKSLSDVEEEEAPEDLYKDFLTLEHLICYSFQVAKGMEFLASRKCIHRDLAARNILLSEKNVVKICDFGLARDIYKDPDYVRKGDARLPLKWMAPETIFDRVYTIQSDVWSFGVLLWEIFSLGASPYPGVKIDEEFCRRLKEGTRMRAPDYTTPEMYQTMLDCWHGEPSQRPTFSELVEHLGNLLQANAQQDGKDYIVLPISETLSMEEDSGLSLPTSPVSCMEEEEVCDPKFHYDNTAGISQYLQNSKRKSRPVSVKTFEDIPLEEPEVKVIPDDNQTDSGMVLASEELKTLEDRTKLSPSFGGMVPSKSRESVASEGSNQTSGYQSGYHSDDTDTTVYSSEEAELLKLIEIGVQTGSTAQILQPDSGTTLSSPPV

For `Cc1ccc(NC(=O)Nc2ccc(Oc3ncnc4sc5c(c34)CCCC5)cc2)cc1Cl` [Compound 21e], the “%MVD in EAC solid tumor” value in the data set with CD31 and CD34 (% MVD) is “reduction of %MVD”. In addition, the “Brain Index” value was 0.0167 ± 0.002 in data set [1] (5 mg/kg/day po) and 0.0174 ± 0.002 in data set [1] (10 mg/kg/day po). For the same compound, the entries for the “Heart Index” value in data set [1] (5 mg/kg/day po) and in [1] (10 mg/kg/day po) were 0.0044 ± 0.0013 and 0.0056 ± 0.0009, respectively. In addition, the “Kidney Index” value came out at 0.012 ± 0.002 in [1] (5 mg/kg/day po) and 0.013 ± 0.002 in data set [1] (10 mg/kg/day po). Besides, the figures for the “Liver Index” value in data set [1] (5 mg/kg/day po) and in data set [1] (10 mg/kg/day po) were 0.048 ± 0.006 and 0.057 ± 0.007, respectively. For the same compound, the “Histopathological examination of liver, kidney, heart and brain samples” value in [1] is “without any histopathological alterations in liver, kidney and brain”. Also, the “Toxicity (overall statement)” value in [1] (oral, 5 and 10 mg/kg/day for 8 consecutive days) is “did not show any noticeable toxicity”. The pIC50 (commonly the IC50 on a negative log10 scale, so that one unit is a factor of ten) at VEGFR-2 (KDR) was 7.68. The “Antiangiogenic effect in Miles vascular permeability assay” value in data set [2] is “confirmed the antiangiogenic effects”. For the same compound, the “Active caspase 3 levels in EAC solid tumor” value in the data set with active caspase 3 was “increased active caspase 3 levels”. For the same compound, the inhibition (as a rule, how much of the control response was suppressed) at 10 µM at c-Raf turned out to be 71%; at RET, 91%; on c-Kit, 64%; on c-Src it was 6%; in data set [4] (read-out: % Cell inhibition) it was 46%. In addition, the “VEGFR-2 phosphorylation in EAC solid tumor” value at phospho-VEGFR-2 (Tyr951) was “decreased VEGFR-2 phosphoryaltion”. Also, the “Tumor Index” value in [3] (5 mg/kg/day po, 8 consecutive days, mean ± SD, n = 6) is reported as 0.041 ± 0.007. The “TGI (%)” value is listed as 79.1% in data set [3] (5 mg/kg/day po) and 82.7% in [3] (10 mg/kg/day po). Besides, the “Histopathological examination of EAC tumor sections (necrosis)” value is given as “moderate diffuse necrosis” in data set [3] (5 mg/kg) and “severe necrosis in a wide area” in data set [3] (10 mg/kg). Also, in data set [4] (read-out: % Cell growth), the activity at 10 µM came to 54%.
On to `Cn1ccc2ncnc(Oc3ccc(NC(=O)Nc4cccc(C(F)(F)F)c4)c(F)c3)c21` [III], for which the pIC50 in the data set on VEGFR-2 was 8.21.
Consider `CNC(=O)c1cc(Oc2ccc(NC(=O)Nc3ccc(Cl)c(C(F)(F)F)c3)cc2)ccn1` [Sorafenib], for which the “Histopathological examination of liver, kidney, heart and brain samples” value in data set [1] was “Degenerative changes were found in the hepatocytes and hippocampus”. Besides, the pIC50 in the data set on wild-type b-Raf is 7.60; in data set [5], 7.48; in [6], 7.17; at RET tyrosine kinase, 7.30; in data set [7], 7.24. The inhibition at 1 µM on c-Raf (read-out: Inhibition %, c-Raf, reference inhibitor) is 92%. The “Histopathological examination of EAC tumor sections (necrosis)” value in data set [3] (10 mg/kg) is “wide severe necrosis”.

The values are drawn from article PMC4832243, “Discovery of Potent VEGFR-2 Inhibitors based on Furopyrimidine and Thienopyrimidne Scaffolds as Cancer Targeting Agents” (Scientific Reports, 2016).
